Experiments:
[1] = Evaluation of conversion rate to active form in buffer solution (Experimental Example 1); assay type: physicochemical; settings: for Production rate of Alvocidib / Residual rate: 37° C., 25 umol/L in buffer solution; for Stability in buffer solution at pH 5: pH 5, 37° C., up to 2 or 3 hours; for Conversion to Alvocidib at pH 7.4: pH 7.4, 37° C., up to 3 hours
Method in brief: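 HPLC read-out: residual parent and Alvocidib production rate after 0, 0.5, 1, 2 and 3 hours. Compounds sat at 25 umol/L, 37° C, in buffers from pH 5.0 to 7.4 (50 mM citrate below pH 6.0, 50 mM phosphate otherwise).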

[2] = Pharmacokinetic test, intravenous solution and liposome formulations in mice (Experimental Example 6); assay type: in vivo; settings: female BALB/c mice
Method in brief: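 Solution or liposome formulation (ammonium sulfate-loaded HSPC/cholesterol/PEG-lipid liposomes, outer buffer 10 mM tartrate/10% sucrose pH 4) given IV to 7-week-old female BALB/c mice. Jugular blood sampled without anesthesia up to 24 h (solution) or 72 h (liposome); test compound and Alvocidib in plasma measured by LC-MS/MS.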

CCCN(C[C@H]1CCCCN1)C(=O)Oc1cc(O)c2c(=O)cc(-c3ccccc3Cl)oc2c1[C@H]1CCN(C)C[C@H]1O [Example 6, 2-(2-chlorophenyl)-5-hydroxy-8-[(3S,4R)-3-hydroxy-1-methylpiperidin-4-yl]-4-oxo-4H-1-benzopyran-7-yl {[(2R)-piperidin-2-yl]methyl}propylcarbamate]
Production rate of Alvocidib ([1]; pH5.0, 0 hr): 0.5% | Residual rate ([1]; pH5.0, 0 hr): 99.3% | Stability in buffer solution at pH 5 [1]: stable | Production rate of Alvocidib ([1]; pH5.0, 0.5 hr): 0.9% | Residual rate ([1]; pH5.0, 0.5 hr): 99.1% | Production rate of Alvocidib ([1]; pH5.0, 1 hr): 1.3% | Residual rate ([1]; pH5.0, 1 hr): 98.7% | Production rate of Alvocidib ([1]; pH5.0, 2 hr): 2.0% | Residual rate ([1]; pH5.0, 2 hr): 97.8% | Production rate of Alvocidib ([1]; pH5.0, 3 hr): 2.6% | Residual rate ([1]; pH5.0, 3 hr): 96.8% | Production rate of Alvocidib ([1]; pH5.5, 0 hr): 0.5% | Residual rate ([1]; pH5.5, 0 hr): 99.5% | Production rate of Alvocidib ([1]; pH5.5, 0.5 hr): 1.6% | Residual rate ([1]; pH5.5, 0.5 hr): 98.1% | Production rate of Alvocidib ([1]; pH5.5, 1 hr): 2.5% | Residual rate ([1]; pH5.5, 1 hr): 97.0% | Production rate of Alvocidib ([1]; pH5.5, 2 hr): 4.3% | Residual rate ([1]; pH5.5, 2 hr): 94.2% | Production rate of Alvocidib ([1]; pH5.5, 3 hr): 6.2% | Residual rate ([1]; pH5.5, 3 hr): 91.9% | Production rate of Alvocidib ([1]; pH6.0, 0 hr): 0.6% | Residual rate ([1]; pH6.0, 0 hr): 99.4% | Production rate of Alvocidib ([1]; pH6.0, 0.5 hr): 4.0% | Residual rate ([1]; pH6.0, 0.5 hr): 94.8% | Production rate of Alvocidib ([1]; pH6.0, 1 hr): 7.1% | Residual rate ([1]; pH6.0, 1 hr): 90.7% | Production rate of Alvocidib ([1]; pH6.0, 2 hr): 13.2% | Residual rate ([1]; pH6.0, 2 hr): 82.5% | Production rate of Alvocidib ([1]; pH6.0, 3 hr): 18.6% | Residual rate ([1]; pH6.0, 3 hr): 75.2% | Production rate of Alvocidib ([1]; pH6.5, 0 hr): 0.6% | Residual rate ([1]; pH6.5, 0 hr): 99.4% | Production rate of Alvocidib ([1]; pH6.5, 0.5 hr): 10.1% | Residual rate ([1]; pH6.5, 0.5 hr): 86.6% | Production rate of Alvocidib ([1]; pH6.5, 1 hr): 18.6% | Residual rate ([1]; pH6.5, 1 hr): 75.3% | Production rate of Alvocidib ([1]; pH6.5, 2 hr): 31.9% | Residual rate ([1]; pH6.5, 2 hr): 56.9% | Production rate of Alvocidib ([1]; pH6.5, 3 hr): 42.8% | Residual rate ([1]; pH6.5, 3 hr): 42.3% | Production rate of Alvocidib ([1]; pH7.0, 0 hr): 0.7% | Residual rate ([1]; pH7.0, 0 hr): 99.3% | Production rate of Alvocidib ([1]; pH7.0, 0.5 hr): 27.0% | Residual rate ([1]; pH7.0, 0.5 hr): 63.7% | Production rate of Alvocidib ([1]; pH7.0, 1 hr): 44.4% | Residual rate ([1]; pH7.0, 1 hr): 40.4% | Production rate of Alvocidib ([1]; pH7.0, 2 hr): 62.8% | Residual rate ([1]; pH7.0, 2 hr): 16.1% | Production rate of Alvocidib ([1]; pH7.0, 3 hr): 69.8% | Residual rate ([1]; pH7.0, 3 hr): 6.8% | Production rate of Alvocidib ([1]; pH7.4, 0 hr): 0.9% | Residual rate ([1]; pH7.4, 0 hr): 99.1% | Conversion to Alvocidib at pH 7.4 [1]: rapidly converted to Alvocidib | Production rate of Alvocidib ([1]; pH7.4, 0.5 hr): 47.8% | Residual rate ([1]; pH7.4, 0.5 hr): 36.3% | Production rate of Alvocidib ([1]; pH7.4, 1 hr): 65.7% | Residual rate ([1]; pH7.4, 1 hr): 12.7% | Production rate of Alvocidib ([1]; pH7.4, 2 hr): 73.6% | Residual rate ([1]; pH7.4, 2 hr): 2.7% | Production rate of Alvocidib ([1]; pH7.4, 3 hr): 75.3% | Residual rate ([1]; pH7.4, 3 hr): 0.7% | Blood retention of liposome formulation compared with the corresponding solution formulation [2]: higher blood retention

CN1CC[C@H](c2c(OC(=O)N(CCF)CC3CCCCN3)cc(O)c3c(=O)cc(-c4ccccc4Cl)oc23)[C@H](O)C1 (stereo partly drawn) [Example 11, 2-(2-chlorophenyl)-5-hydroxy-8-[(3S,4R)-3-hydroxy-1-methylpiperidin-4-yl]-4-oxo-4H-1-benzopyran-7-yl (2-fluoroethyl) [(piperidin-2-yl)methyl]carbamate]
Production rate of Alvocidib ([1]; pH5.0, 0 hr): 0.2% | Residual rate ([1]; pH5.0, 0 hr): 83.2% | Stability in buffer solution at pH 5 [1]: stable | Production rate of Alvocidib ([1]; pH5.0, 0.5 hr): 0.9% | Residual rate ([1]; pH5.0, 0.5 hr): 82.7% | Production rate of Alvocidib ([1]; pH5.0, 1 hr): 1.8% | Residual rate ([1]; pH5.0, 1 hr): 81.3% | Production rate of Alvocidib ([1]; pH5.0, 2 hr): 3.3% | Residual rate ([1]; pH5.0, 2 hr): 80.5% | Production rate of Alvocidib ([1]; pH5.0, 3 hr): 4.8% | Residual rate ([1]; pH5.0, 3 hr): 79.1% | Production rate of Alvocidib ([1]; pH5.5, 0 hr): 0.2% | Residual rate ([1]; pH5.5, 0 hr): 83.6% | Production rate of Alvocidib ([1]; pH5.5, 0.5 hr): 2.5% | Residual rate ([1]; pH5.5, 0.5 hr): 81.8% | Production rate of Alvocidib ([1]; pH5.5, 1 hr): 4.8% | Residual rate ([1]; pH5.5, 1 hr): 79.2% | Production rate of Alvocidib ([1]; pH5.5, 2 hr): 9.4% | Residual rate ([1]; pH5.5, 2 hr): 75.0% | Production rate of Alvocidib ([1]; pH5.5, 3 hr): 14.0% | Residual rate ([1]; pH5.5, 3 hr): 70.2% | Production rate of Alvocidib ([1]; pH6.0, 0 hr): 0.3% | Residual rate ([1]; pH6.0, 0 hr): 83.7% | Production rate of Alvocidib ([1]; pH6.0, 0.5 hr): 8.5% | Residual rate ([1]; pH6.0, 0.5 hr): 76.0% | Production rate of Alvocidib ([1]; pH6.0, 1 hr): 16.9% | Residual rate ([1]; pH6.0, 1 hr): 66.6% | Production rate of Alvocidib ([1]; pH6.0, 2 hr): 32.6% | Residual rate ([1]; pH6.0, 2 hr): 49.8% | Production rate of Alvocidib ([1]; pH6.0, 3 hr): 39.4% | Residual rate ([1]; pH6.0, 3 hr): 44.8% | Production rate of Alvocidib ([1]; pH6.5, 0 hr): 0.8% | Residual rate ([1]; pH6.5, 0 hr): 81.4% | Production rate of Alvocidib ([1]; pH6.5, 0.5 hr): 23.6% | Residual rate ([1]; pH6.5, 0.5 hr): 60.4% | Production rate of Alvocidib ([1]; pH6.5, 1 hr): 46.5% | Residual rate ([1]; pH6.5, 1 hr): 35.6% | Production rate of Alvocidib ([1]; pH6.5, 2 hr): 60.2% | Residual rate ([1]; pH6.5, 2 hr): 23.7% | Production rate of Alvocidib ([1]; pH6.5, 3 hr): 62.7% | Residual rate ([1]; pH6.5, 3 hr): 21.4% | Production rate of Alvocidib ([1]; pH7.0, 0 hr): 2.1% | Residual rate ([1]; pH7.0, 0 hr): 80.0% | Production rate of Alvocidib ([1]; pH7.0, 0.5 hr): 53.4% | Residual rate ([1]; pH7.0, 0.5 hr): 30.1% | Production rate of Alvocidib ([1]; pH7.0, 1 hr): 62.1% | Residual rate ([1]; pH7.0, 1 hr): 22.0% | Production rate of Alvocidib ([1]; pH7.0, 2 hr): 67.0% | Residual rate ([1]; pH7.0, 2 hr): 17.1% | Production rate of Alvocidib ([1]; pH7.0, 3 hr): 71.6% | Residual rate ([1]; pH7.0, 3 hr): 12.4% | Production rate of Alvocidib ([1]; pH7.4, 0 hr): 4.6% | Residual rate ([1]; pH7.4, 0 hr): 79.7% | Conversion to Alvocidib at pH 7.4 [1]: rapidly converted to Alvocidib | Production rate of Alvocidib ([1]; pH7.4, 0.5 hr): 68.3% | Residual rate ([1]; pH7.4, 0.5 hr): 16.2% | Production rate of Alvocidib ([1]; pH7.4, 1 hr): 67.0% | Residual rate ([1]; pH7.4, 1 hr): 16.7% | Production rate of Alvocidib ([1]; pH7.4, 2 hr): 67.9% | Residual rate ([1]; pH7.4, 2 hr): 16.2% | Production rate of Alvocidib ([1]; pH7.4, 3 hr): 67.3% | Residual rate ([1]; pH7.4, 3 hr): 15.9% | Blood retention of liposome formulation compared with the corresponding solution formulation [2]: higher blood retention

From patent publication US12617779B2, “Self degradation-type CDK9 inhibitor prodrug and liposome encapsulating same” (Sumitomo Pharma Co., Ltd., priority 2021, dated 2026)
